Results on one molecule are retold here after patent publication US20090054317A1 (priority 2006, published 2009).

In this data set the test system is toxin-induced cell death in RAW264.7 cells. The note with it: mouse.

As usually defined, the IC50 is the midpoint of a concentration-inhibition curve. A low value points to greater potency. `CC(=O)N[C@@H](C)C(=O)N[C@@H](Cc1c[nH]c2ccccc12)C(=O)N1CCC[C@H]1C(=O)N[C@@H](CC(C)C)C(=O)N[C@@H](CO)C(=O)N[C@@H](CCC(N)=O)C(=O)N[C@@H](CC(C)C)C(=O)N[C@@H](CC(=O)O)C(=O)N[C@@H](Cc1c[nH]cn1)C(=O)N[C@@H](CO)C(=O)N[C@@H](Cc1ccc(O)cc1)C(=O)N[C@@H](CC(N)=O)C(=O)N[C@@H](CS)C(N)=O` [corresponding monovalent peptide] returned an IC50 above 2000 µM.
